The record followed here is US7385026B1, “Modified ghrelin polypeptides” (priority 1999, dated 2008).

The target in the assay is T1, rat GHS-receptor (GHR-R) (Rattus norvegicus, UniProt O08725).
T1 construct: A full-length cDNA for rat GHR-R was obtained by RT-PCR; expressed in transfected cells
The experiment in a line: Ca-releasing activity (increase in intracellular calcium) in CHO-GHSR62 cells, FLIPR. It is filed as cell-based. An excerpt: To assay an increase in the intracellular calcium ion concentration (Ca-releasing activity) occurring upon binding of a GH secretagogue (GHS) to GHS-receptor (GHR-R), a cell strain expressing rat GHR-R was created in the following manner. A full-length cDNA for rat GHR-R was obtained by RT-PCR (reverse transcriptase-polymerase chain reaction) where a cDNA derived from rat brain was used as template. From the nucleotide sequence of known rat GHR-R [K. K. Mckee, et al, Molecular Endocrinology 11, 415-423 (1997)], sense and antisense primers consisting of the following nucleotide sequences were synthesized.
The amplified cDNA was ligated to vector pcDNAIII (Invitrogen) to construct expression vector GHSR-pcDNAIII. CHO cells were transformed via the expression vector, and the transformed cells stably expressing GHR-R were selected in a medium containing 1 μg/ml G418. […] A change in the intracellular calcium ion concentration (Ca-releasing activity) was measured by an FLIPR system (Molecular Device). Before this measurement, 4×10^4 CHO-GHSR62 cells were put to a 96-well microplate with black wall (Corning Co., Ltd) and cultured for 12 to 15 hours. Then, the cells were incubated with 4 μM fluorescent Fluo4 (Molecular Probe Co., Ltd) for 1 hour and washed four times with Hank's BSS (Hank's Balanced Salt Solution) containing 20 mM Hepes ([N-2-hydroxyethyl]-piperazine-N-[2-ethanesulfonic acid]) and 2.5 mM probenecid, and the Ca-releasing activity was assayed by adding a sample and measuring a change in the fluorescence.
Peptide fragments obtained by partially digested the rat- and human-derived ghrelins by various proteases, or chemically synthesized peptides, were examined for their Ca releasing activity in order to determine a core amino acid sequence and the optimum chain length of a modifying fatty acid necessary for Ca-releasing activity.
The Ca-increasing activities of the ghrelin derivative peptide-type compounds synthesized in Example 10 and the natural ghrelin peptide were measured in the same manner as in Example 1.
In this examination, the intracellular Ca-releasing activity in CHO cells expressing rat GSH receptor was used as the indicator.

[1] abbreviates: Table 3, Example 9: protease fragments or synthetic peptides, CHO-GHSR62 cells, read-out: Ca-releasing activity (EC50).
Setting [2] is: CHO-GHSR62 cells (CHO cells expressing rat GHS receptor), FLIPR, read-out: Ca-releasing activity EC50.

Structures are written as SMILES. Read-outs that look alike come from different tables or passages of the source. Square brackets hold non-standard residues; d marks the D form. Peptide text beside a SMILES is read from it. * marks the point of attachment. Octanoyl = CCCCCCCC(=O)*; Aib = CC(C)(N)C(=O)O; Octyl = CCCCCCCC*

T1 sequence (O08725 whole entry): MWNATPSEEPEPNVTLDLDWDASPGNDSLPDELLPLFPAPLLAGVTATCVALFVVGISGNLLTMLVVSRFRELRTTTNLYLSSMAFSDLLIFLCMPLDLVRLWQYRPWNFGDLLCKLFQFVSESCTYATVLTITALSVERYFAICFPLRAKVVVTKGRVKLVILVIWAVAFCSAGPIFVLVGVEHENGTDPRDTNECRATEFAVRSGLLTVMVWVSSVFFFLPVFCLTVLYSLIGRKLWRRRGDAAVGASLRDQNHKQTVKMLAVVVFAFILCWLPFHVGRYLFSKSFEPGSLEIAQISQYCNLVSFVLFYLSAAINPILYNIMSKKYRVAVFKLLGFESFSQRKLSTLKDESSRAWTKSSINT

For `CCCCCCCC(=O)OC[C@H](NC(=O)[C@H](CO)NC(=O)CN)C(=O)N[C@@H](Cc1ccccc1)C(=O)N[C@@H](CC(C)C)C(=O)N[C@@H](CO)C(=O)N1CCC[C@H]1C(=O)N[C@@H](CCC(=O)O)C(=O)N[C@@H](Cc1c[nH]cn1)C(=O)N[C@@H](CCC(N)=O)C(=O)N[C@@H](CCCNC(=N)N)C(=O)O` [Compound 23, hGhrelin (1-11)], the EC50 under setting [1] came to 15 nM.
As to `CCCCCCCC(=O)O[C@H](C)[C@H](NC(=O)[C@H](CO)NC(=O)CN)C(=O)N[C@@H](Cc1ccccc1)C(=O)N[C@@H](CC(C)C)C(=O)N[C@@H](CO)C(=O)N1CCC[C@H]1C(=O)N[C@@H](CCC(=O)O)C(=O)N[C@@H](Cc1c[nH]cn1)C(=O)N[C@@H](CCC(N)=O)C(=O)N[C@@H](CCCNC(=N)N)C(=O)N[C@H](C(=O)N[C@@H](CCC(N)=O)C(=O)N[C@@H](CCC(N)=O)C(=O)N[C@@H](CCCNC(=N)N)C(=O)N[C@@H](CCCCN)C(=O)N[C@@H](CCC(=O)O)C(=O)N[C@@H](CO)C(=O)N[C@@H](CCCCN)C(=O)N[C@@H](CCCCN)C(=O)N1CCC[C@H]1C(=O)N1CCC[C@H]1C(=O)N[C@@H](C)C(=O)N[C@@H](CCCCN)C(=O)N[C@@H](CC(C)C)C(=O)N[C@@H](CCC(N)=O)C(=O)N1CCC[C@H]1C(=O)N[C@@H](CCCNC(=N)N)C(=O)O)C(C)C` [Compound 59, [Thr^3(Octanoyl)]-hGhrelin], the EC50 under setting [2] came out at 10 nM.
Regarding `CCCCCCCC(=O)OC[C@H](NC(=O)[C@H](CO)NC(=O)CN)C(=O)N[C@@H](Cc1ccccc1)C(=O)N[C@@H](CC(C)C)C(=O)N[C@@H](CO)C(=O)N1CCC[C@H]1C(=O)N[C@@H](CCC(=O)O)C(=O)N[C@@H](Cc1c[nH]cn1)C(=O)N[C@@H](CCC(N)=O)C(=O)N[C@@H](CCCCN)C(=O)N[C@@H](C)C(=O)N[C@@H](CCC(N)=O)C(=O)N[C@@H](CCCNC(=N)N)C(=O)N[C@@H](CCCCN)C(=O)N[C@@H](CCC(=O)O)C(=O)N[C@@H](CO)C(=O)N[C@@H](CCCCN)C(=O)N[C@@H](CCCCN)C(=O)N1CCC[C@H]1C(=O)N1CCC[C@H]1C(=O)N[C@@H](C)C(=O)N[C@@H](CCCCN)C(=O)N[C@@H](CC(C)C)C(=O)N[C@@H](CCC(N)=O)C(=O)N1CCC[C@H]1C(=O)N[C@@H](CCCNC(=N)N)C(=O)O` [Compound 22, [des Gln^14]-rGhrerin] (H-GSS(Octanoyl)FLSPEHQKAQRKESKKPPAKLQPR-OH; N-terminus and C-terminus assumed), under setting [2], the EC50 worked out at 1.5 nM. Further, the “Ca-releasing activity (in words)” value (CHO-GHSR62 cells, listed as Ghrelin-27) is “completely the same Ca-releasing activity”.
For `CCCCCCCC(=O)OC[C@H](NC(=O)[C@H](CO)NC(=O)CN)C(=O)N[C@@H](Cc1ccccc1)C(=O)O` [Compound 33-1, Ghrelin (1-4)] (H-GSS(Octanoyl)F-OH), the EC50 under setting [2] came out at 480 nM.
On to `CC(=O)OC[C@H](NC(=O)[C@H](CO)NC(=O)CN)C(=O)N[C@@H](Cc1ccccc1)C(=O)N[C@@H](CC(C)C)C(=O)N[C@@H](CO)C(=O)N1CCC[C@H]1C(=O)N[C@@H](CCC(=O)O)C(=O)N[C@@H](Cc1c[nH]cn1)C(=O)N[C@@H](CCC(N)=O)C(=O)N[C@@H](CCCCN)C(=O)N[C@@H](C)C(=O)N[C@@H](CCC(N)=O)C(=O)N[C@@H](CCC(N)=O)C(=O)N[C@@H](CCCNC(=N)N)C(=O)N[C@@H](CCCCN)C(=O)N[C@@H](CCC(=O)O)C(=O)N[C@@H](CO)C(=O)N[C@@H](CCCCN)C(=O)N[C@@H](CCCCN)C(=O)N1CCC[C@H]1C(=O)N1CCC[C@H]1C(=O)N[C@@H](C)C(=O)N[C@@H](CCCCN)C(=O)N[C@@H](CC(C)C)C(=O)N[C@@H](CCC(N)=O)C(=O)N1CCC[C@H]1C(=O)N[C@@H](CCCNC(=N)N)C(=O)O` [Compound 8, [Ser^3(Acetyl)]-rGhrelin], for which the 50% effective concentration (EC50) under setting [2] is 780 nM.
Consider `CC(C)CCC(=O)OC[C@H](NC(=O)[C@H](CO)NC(=O)CN)C(=O)N[C@@H](Cc1ccccc1)C(=O)N[C@@H](CC(C)C)C(=O)N[C@@H](CO)C(=O)N1CCC[C@H]1C(=O)N[C@@H](CCC(=O)O)C(=O)N[C@@H](Cc1c[nH]cn1)C(=O)N[C@@H](CCC(N)=O)C(=O)N[C@@H](CCCNC(=N)N)C(=O)N[C@H](C(=O)N[C@@H](CCC(N)=O)C(=O)N[C@@H](CCC(N)=O)C(=O)N[C@@H](CCCNC(=N)N)C(=O)N[C@@H](CCCCN)C(=O)N[C@@H](CCC(=O)O)C(=O)N[C@@H](CO)C(=O)N[C@@H](CCCCN)C(=O)N[C@@H](CCCCN)C(=O)N1CCC[C@H]1C(=O)N1CCC[C@H]1C(=O)N[C@@H](C)C(=O)N[C@@H](CCCCN)C(=O)N[C@@H](CC(C)C)C(=O)N[C@@H](CCC(N)=O)C(=O)N1CCC[C@H]1C(=O)N[C@@H](CCCNC(=N)N)C(=O)O)C(C)C` [Compound 69, [Ser^3(4-Methylpentanoyl)]-hGhrelin], for which the concentration for a half-maximal effect (EC50) under setting [2] turned out to be 4.4 nM.
`CCCCCCCC(=O)OC[C@H](NC(=O)[C@H](CO)NC(=O)CN)C(=O)N[C@@H](Cc1ccccc1)C(=O)N[C@@H](CC(C)C)C(=O)N[C@@H](CO)C(=O)N1CCC[C@H]1C(=O)N[C@@H](CCC(=O)O)C(=O)N[C@@H](Cc1c[nH]cn1)C(N)=O` [Compound 3, Ghrelin (1-9)-amide] (H-GSS(Octanoyl)FLSPEH-NH2): the “Ca-releasing activity of ghrelin (1-9) after amidation relative to before amidation” value was “about 7 times”. Further, the EC50 under setting [2] amounted to 5.4 nM.
As to `CC(C)C[C@H](NC(=O)[C@H](CCCCN)NC(=O)[C@H](C)NC(=O)[C@@H]1CCCN1C(=O)[C@@H]1CCCN1C(=O)[C@H](CCCCN)NC(=O)[C@H](CCCCN)NC(=O)[C@H](CO)NC(=O)[C@H](CCC(=O)O)NC(=O)[C@H](CCCCN)NC(=O)[C@H](CCCNC(=N)N)NC(=O)[C@H](CCC(N)=O)NC(=O)[C@H](CCC(N)=O)NC(=O)[C@@H](NC(=O)[C@H](CCCNC(=N)N)NC(=O)[C@H](CCC(N)=O)NC(=O)[C@H](Cc1c[nH]cn1)NC(=O)[C@H](CCC(=O)O)NC(=O)[C@@H]1CCCN1C(=O)[C@H](CO)NC(=O)[C@H](CC(C)C)NC(=O)[C@H](Cc1ccccc1)NC(=O)[C@H](CCCCN)NC(=O)[C@H](CO)NC(=O)CN)C(C)C)C(=O)N[C@@H](CCC(N)=O)C(=O)N1CCC[C@H]1C(=O)N[C@@H](CCCNC(=N)N)C(=O)O` [Compound 72, [Lys^3]-hGhrelin], the EC50 under setting [2] came to 120 nM.
Same read-out and setting: under `CCCCCCCCOC[C@H](NC(=O)CCCCN)C(=O)N[C@@H](Cc1ccccc1)C(=O)N[C@@H](CC(C)C)C(=O)NCc1ccccc1` [Compound 84, [N-Aminopentanoyl, Ser^3(Octyl)]-Ghrelin (3-5)-benzylamide] stands 98 nM.
Same read-out and setting: under `CCCCCCCC(=O)NC[C@H](NC(=O)[C@H](CO)NC(=O)CN)C(=O)N[C@@H](Cc1ccccc1)C(=O)N[C@@H](CC(C)C)C(=O)N[C@@H](CO)C(=O)N1CCC[C@H]1C(=O)N[C@@H](CCC(=O)O)C(=O)N[C@@H](Cc1cnc[nH]1)C(=O)N[C@@H](CCC(N)=O)C(=O)N[C@@H](CCCNC(=N)N)C(=O)N[C@H](C(=O)N[C@@H](CCC(N)=O)C(=O)N[C@@H](CCC(N)=O)C(=O)N[C@@H](CCCNC(=N)N)C(=O)N[C@@H](CCCCN)C(=O)N[C@@H](CCC(=O)O)C(=O)N[C@@H](CO)C(=O)N[C@@H](CCCCN)C(=O)N[C@@H](CCCCN)C(=O)N1CCC[C@H]1C(=O)N1CCC[C@H]1C(=O)N[C@@H](C)C(=O)N[C@@H](CCCCN)C(=O)N[C@@H](CC(C)C)C(=O)N[C@@H](CCC(N)=O)C(=O)N1CCC[C@H]1C(=O)N[C@@H](CCCNC(=N)N)C(=O)O)C(C)C` [Compound 56, [Dap^3(Octanoyl)]-hGhrelin] stands 2.6 nM; under `CCCCCCCC(=O)OC[C@H](NC(=O)CN)C(=O)N[C@@H](Cc1ccccc1)C(=O)N[C@@H](CC(C)C)C(=O)N[C@@H](CO)C(=O)N1CCC[C@H]1C(N)=O` [Compound 43, [N-Glycyl]-Ghrelin (3-7)-amide] (H-GS(Octanoyl)FLSP-NH2), 380 nM.
Turning to `CCCCCCCCOC[C@H](NC(=O)CCCCN)C(=O)N[C@@H](Cc1ccccc1)C(=O)N[C@@H](CC(C)C)C(=O)NCC` [Compound 83, [N-Aminopentanoyl, Ser^3(Octyl)]-Ghrelin (3-5)-ethylamide], under setting [2], the EC50 was determined as 22 nM.
For the molecule `CCCCCCCCOC[C@@H](NC(=O)[C@H](Cc1c[nH]cn1)NC(=O)C(C)(C)N)C(=O)N[C@H](Cc1ccccc1)C(=O)N[C@@H](CCCCN)C(N)=O` [Compound 79, [Aib^1, His^2, ^DSer^3(Octyl), ^DPhe^4, Lys^5]-Ghrelin (1-5)-amide] (H-[Aib]H[dS](Octyl)[dF]K-NH2), the EC50 under setting [2] is 38 nM.
Take `CCCCCCCC(=O)OC[C@H](NC(=O)[C@H](CO)NC(=O)CN)C(=O)N[C@@H](Cc1ccccc1)C(=O)N[C@@H](CC(C)C)C(=O)N[C@@H](CO)C(=O)N1CCC[C@H]1C(=O)N[C@@H](CCC(=O)O)C(=O)N[C@@H](Cc1c[nH]cn1)C(=O)N[C@@H](CCC(N)=O)C(=O)O` [Compound 25, Ghrelin (1-10)]: the EC50 under setting [1] worked out at 19 nM.
For `CCCCCCCCSC[C@H](NC(=O)[C@H](CO)NC(=O)CN)C(=O)N[C@H](Cc1ccccc1)C(=O)N[C@@H](CC(C)C)C(=O)N[C@@H](CO)C(=O)N1CCC[C@H]1C(N)=O` [Compound 49, [Cys^3(Octyl), ^DPhe^4]Ghrelin (1-7)-amide] (H-GSC(Octyl)[dF]LSP-NH2), under setting [2], the EC50 worked out at 3000 nM.
